In the METLIN SMRT retention time set (Domingo-Almenara et al. 2019):

Assay: gradient 5% acetonitrile 3 min, to 50% in 2 min, to 85% in 15 min, held 3 min, 100 µL/min
Settings: column: Zorbax Extend-C18 2.1 x 50 mm; eluents: water / acetonitrile, 0.1% formic acid
In short: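 Mixtures of ~100 pure standards were chromatographed on a Zorbax Extend-C18 column (2.1 × 50 mm, 1.8 μm) at 100 μL/min using water and acetonitrile, each with 0.1% formic acid. Detection used a quadrupole time-of-flight mass spectrometer in positive and negative ionization mode, and data collection spanned 3 months. Retention time was obtained from adduct peaks picked computationally and each checked manually.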

Row | RP-LC retention time | SMILES
1 | 1040 s | Cc1ccc(N2C(=O)C3N=NN(Cc4nc(-c5cccc(C)c5)no4)C3C2=O)cc1 (stereo unspecified)
2 | 849 s | CCc1ccc(OCC(=O)Nc2nnc(C3CC(=O)N(c4ccc(F)cc4)C3)o2)cc1 (stereo unspecified)
3 | 723 s | CCN(CC)C(=O)c1ccc(-c2nc3cc(NS(=O)(=O)c4cc(F)ccc4C)ccc3n2C)cc1
4 | 1100 s | Fc1ccc(-c2nnc(Cc3nc(-c4ccc(C(F)(F)F)cc4)no3)o2)cc1
5 | 882 s | COc1cc(OC)cc(C(=O)Nc2ccc3sccc3c2)c1
6 | 675 s | COC(=O)c1cc2c(=O)n(-c3ccc(NC(C)=O)cc3)ccc2nc1C
7 | 779 s | O=C(NCc1nc(-c2ccccc2)no1)c1csc(-c2cnccn2)n1
8 | 544 s | COc1ccc(CN2CCN(c3cnn4c(C5CC5)nnc4c3)CC2)cc1
9 | 851 s | O=S(=O)(c1ccccc1)N1CCCCC1c1nc(-c2ccccc2)n[nH]1 (stereo unspecified)
10 | 714 s | Cc1cccc(-c2nc3ccccn3c2NC(=O)NCc2ccc(F)cc2)c1
11 | 851 s | O=c1ccn(-c2cccc(F)c2)nc1-c1nc(-c2ccccc2)no1
12 | 696 s | CCc1ccc(S(=O)(=O)Nc2ccc(-c3cn4ccc(C)nc4n3)cc2)cc1
13 | 964 s | Cc1cc(=O)n(CC(=O)Nc2ccccc2)c(-c2ccccc2)n1
14 | 1380 s | Cc1ccc(C)c(N2CCN(c3ncc(S(=O)(=O)c4ccc(Cl)cc4)c(N)n3)CC2)c1
15 | 831 s | CN1C(=O)c2cccnc2Sc2cc(NC(=O)Cc3cccc(Cl)c3)ccc21
16 | 1070 s | COc1ccc(-c2nnc(Cc3nc(-c4ccc(Cl)cc4)no3)o2)cc1
17 | 803 s | Cc1cccc(CSc2nnc(CNC(=O)c3ccc(S(=O)(=O)N(C)C)cc3)o2)c1

Second part, the compound before the results:

Row | SMILES | RP-LC retention time
18 | CCOC(=O)C1CCN(C(=O)C2(c3ccc(NS(C)(=O)=O)cc3)CCCCC2)CC1 | 894 s
19 | CCc1ccc(N2C=C(C(=O)N3CCOCC3)S(=O)(=O)c3ccc(Cl)cc32)cc1 | 936 s
20 | COc1ccc(OC)c(S(=O)(=O)NCC(O)Cc2ccccc2)c1 (stereo unspecified) | 736 s
21 | CN1C(=O)c2ccccc2Oc2ccc(C(=O)N3CCC4(CC3)OCCO4)cc21 | 741 s
22 | COc1ccccc1NS(=O)(=O)c1cc2n(c1)CCN(CC(C)C)C2=O | 798 s
23 | CC(C)CCN1C(=O)C2CCCN2C(=O)c2ccccc21 (stereo unspecified) | 797 s
24 | COc1ccc(NC(=O)CN2CCc3[nH]c4c(C)cc(C)cc4c(=O)c3C2)cc1OC | 922 s
25 | COc1cccc(N2C=C(C(=O)N3CCCC3)S(=O)(=O)c3ccc(Cl)cc32)c1 | 853 s
26 | Cc1cccc(CNC(=O)C2CCN(Cc3cn(C)c4ccc(Cl)cc34)CC2)c1 | 757 s
27 | O=C(Nc1ccc(F)cc1F)C1CCN(S(=O)(=O)c2cc(C(=O)N3CCCC3)cs2)CC1 | 803 s
28 | COC(=O)C1=CN(C2CC2)c2cc(N3CCc4ccccc4C3)c(F)cc2S1(=O)=O | 977 s
29 | CC(=O)N1c2ccc(S(=O)(=O)N3CCCCC3)cc2CC1C(=O)NC1CCCC1 (stereo unspecified) | 830 s
30 | O=C(O)C1CN(CCCP(=O)(O)O)CCN1 (stereo unspecified) | 627 s
31 | CCN(CC)CCNC(=O)COc1ccc(Cl)cc1 | 694 s
32 | COc1ccc(C(=O)n2nc(C)cc2C)cc1OC | 788 s
33 | CCOC(=O)CNC(=O)N1CCN(Cc2nc3cccnc3n2-c2ccc(C)cc2)CC1 | 611 s
34 | Cc1cc(C)cc(NC(=O)C2CCCN2S(=O)(=O)c2ccc3c(c2)CCCC(=O)N3)c1 (stereo unspecified) | 835 s
35 | O=C(CCS(=O)(=O)c1ccccc1)N(Cc1ccccn1)Cc1ccco1 | 610 s
36 | Cc1cc(=O)n(CC(=O)NCc2ccccc2)c(N(C)Cc2ccccc2)n1 | 684 s
